Experimental data: publication PMC8564633, “SMAC/Diablo controls proliferation of cancer cells by regulating phosphatidylethanolamine synthesis” (Molecular Oncology, 2021)

Experiments:
Ki‐67 = details: si‐hSMAC‐A‐TTs versus si‐NT‐TTs, IHC
Description: Formalin‐fixed and paraffin‐embedded tumour sections were deparaffinized using xylene and a series of ethanol treatments. Sections were then incubated with 3% H2O2 for 10 min to block endogenous peroxidase activity. Antigen retrieval was done in 0.01 M citrate buffer (pH 6.0) at 95–98 °C for 30 min and washed with PBST (0.1% Tween‐20). In order to reduce nonspecific binding, sections were incubated in 10% NGS for 2 h and then incubated with primary antibodies (Table S1) overnight at 4 °C. For IHC, after washing with PBST, sections were incubated for 2 h at room temperature with HRP‐conjugated secondary antibodies, washed well with PBST and incubated with the substrate DAB Sections were washed with water, counterstained with haematoxylin and mounted with Vectashield mounting medium (Vector Laboratories). Sections were observed under a microscope (Leica DM2500, Wetzlar, Germany), and images were collected at 20× magnification with the same light intensity and exposure time. For IF, following overnight incubation with the primary antibodies, PBST‐washed sections were incubated with fluorescent‐tagged secondary antibodies for 2 h at room temperature in the dark. […]
(D‐F) IHC stained of si‐hSMAC‐ or si‐NT‐TTs sections for SMAC (D), Ki‐67 (E), and their quantitative analysis (F) (n = 6 mice/group). […]

SMAC/Diablo = test: SMAC expression in treated tumours (immunoblot, IHC); format: in vivo, human; details: si‐hSMAC‐A‐TTs versus si‐NT‐TTs, n = 6 mice/group
Description: Cells were harvested and washed twice with ice‐cold PBS, and the pellets were lysed on ice for 30 min in a lysis buffer (50 mM Tris/HCl, pH 7.5, 150 mM NaCl, 1 mM EDTA, 1.5 mM MgCl2, 10% glycerol, 1% Triton X‐100), freshly supplemented with a protease inhibitor cocktail (Calbiochem) and centrifuged (10 min, 12 000 g ). The protein concentration of the supernatant was determined, and cells were stored at −80 °C until used for gel electrophoresis and immunoblotting. Protein samples (10–20 μg) were subjected to SDS‐PAGE and immunoblotting, using the selected primary antibodies, followed by incubation with HRP‐conjugated secondary antibodies. HRP activity was determined using EZ‐ECL (Biological Industries). Band intensity was quantified using FUSION‐FX (Vilber Lourmat, Collégien, France).
(§1) Results are presented as the mean tumour volume ± SEM. […] Results are the means ± SEM.

A549 cell xenograft [1] = test: A549 lung cancer xenograft tumour growth; format: in vivo, athymic nude mice; details: relative to si‐NT‐treated tumours, nude mice, n = 8 mice/group
Description: Male Hsd:Athymic ' Nude‐Foxn1nu mice (6–8 weeks old) were obtained from Envigo and were kept in the university animal facility in temperature‐controlled rooms and provided with water and food pellets ad libitum. All procedures involving mice were approved by the Ben‐Gurion Institutional Animal Care and Use Committee.
Lung cancer A549 (3 × 10 ^6 ) cells were implanted subcutaneously on the dorsal flanks. Tumour growth was recorded using digital calibre, and volumes were calculated using, volume = X^2 × Y/2, where X and Y are the short and long tumour dimensions, respectively. Mice were divided randomly into three groups once the average tumour volume reached ˜ 80 mm^3 and were treated subcutaneously with si‐NT or si‐hSMAC‐A mixed with JetPEI reagent (350 or 700 nM final concentration) three times a week. Mice were sacrificed at the end of experiment, and the tumours were excised and processed for immunohistochemistry (IHC) or frozen in liquid nitrogen for immunoblotting and RNA isolation.
as §1

A549 cell xenograft [2] = test: TUNEL staining of treated tumours; format: in vivo, athymic nude mice; details: si‐hSMAC‐A‐TTs, data not shown
phospholipid levels = test: Total PL, PC and PE levels in treated tumours; format: in vivo; details: si‐hSMAC‐A‐TTs relative to si‐NT‐TTs, n = 6 mice per group
Description: Total lipids were extracted from the SMAC‐KO and wild‐type A549/HEK 293T cells by the Folch method. Briefly, a cell suspension (2 × 10^7 cells/mL) was made in CHCl3/MeOH (2 : 1, v/v) sonicated for 30 s. Water (116 μL·mL^−1) was added to the suspension and shaken for 2 h at room temperature at 300 r.p.m. The aqueous suspension was heated for 10 min at 60 °C and stored at 4 °C for 3 h. Undissolved material was filtered through a 0.45‐μm syringe filter. Solvent was evaporated under nitrogen, and residues were re‐dissolved in CHCl3/MeOH for lipid analysis.
Total phospholipid content of the cells was determined calorimetrically at 488 nm based on the formation of a complex between the PLs and ammonium ferrothiocyanate. PC level was also determined by calorimetric analysis at 316 nm using ammonium thiocyanatocobaltate reagent, as described previously.
(§2) PE content in the lipid samples was measured as described previously. Briefly, solvent was evaporated from the lipid samples under nitrogen gas, and samples were resuspended in 0.8 mM Triton X‐100. Sample aliquots were added to 96‐well plates containing (50 µL) reaction mixture (80 mM NaCl, 2 mM K2HPO4, pH 7.4) and of borate buffer (12.5 µL) (100 mM boric acid, 75 mM NaCl, 25 mM sodium tetraborate, pH 9). After mixing, 12.5 µL of 100 µM DSB‐3, in 10 mM K2HPO4 (pH 7.4), was then added and incubated for 2 h in the dark with shaking (100 r.p.m.). Fluorescence was measured using excitation λex = 403 nm and emission λem = 508 nm. A calibration curve was obtained using PE (Biovision) as a standard.
as §1

[3] = test system: VDAC1‐IP3R close association (MAM); test: In‐situ proximity ligation assay VDAC1‐IP3R (MAM) in tumour sections; format: in vivo; details: si‐hSMAC‐A‐TTs sections relative to si‐NT‐TTs
Description: PLA was conducted as previously described using an in␣situ detection reagent red kit (DuoLink InSitu PLA Probe kit; Sigma‐Aldrich) according to the manufacturer’s protocol. VDAC1‐IP3R and SMAC‐PSD were analysed using PLA [24]. Briefly, for tumour section, formalin‐fixed and paraffin‐embedded tumour sections (5‐μm thick) were deparaffinized and then permeabilized using 0.3% Triton X‐100 in PBS for 30 min, followed by blocking with Duolink® Blocking Solution for 1 h. Sections were incubated overnight with anti‐VDAC1 (rabbit 1 : 750) and anti‐IP3R (mouse, 1 : 750), washed twice with TBS‐Tween (0.01%) and then incubated for 1 h with the secondary anti‐mouse and anti‐rabbit antibodies (PLA probe MINUS and PLUS) that were conjugated to complementary oligonucleotide extensions, and ligation and amplification steps were performed per manufacturer’s instructions, and Texas red‐labelled oligonucleotide probes were detected.
Fig. 3 Subcellular morphological alterations including ER‐mitochondria contact sites, as induced by reduction of SMAC levels. […] (C) and subjected to quantitative analysis (n = 5) (D). […] Images at high magnification (Ea,b) (scale bars represent 20, 5 µm as indicated) and ligation product quantification (F) are also shown.

[4] = Cell death induced by the PE probe; format: cell-based; details: data not shown
purified PSD = target: T1, purified PSD (Homo sapiens, UniProt Q9UG56); test: PSD activity, DSB‐3 method; format: biochemical; details: PS 50 μM, 45 min, 30 °C, n = 4, read-out: IC50, SMAC‐inhibiting PSD activity
T1 construct: Purified recombinant protein (full length) of human phosphatidylserine decarboxylase (PSD); His tag (N); purchased Acris-OriGene; host or cells: E. coli
T1 sequence (Q9UG56 53-409): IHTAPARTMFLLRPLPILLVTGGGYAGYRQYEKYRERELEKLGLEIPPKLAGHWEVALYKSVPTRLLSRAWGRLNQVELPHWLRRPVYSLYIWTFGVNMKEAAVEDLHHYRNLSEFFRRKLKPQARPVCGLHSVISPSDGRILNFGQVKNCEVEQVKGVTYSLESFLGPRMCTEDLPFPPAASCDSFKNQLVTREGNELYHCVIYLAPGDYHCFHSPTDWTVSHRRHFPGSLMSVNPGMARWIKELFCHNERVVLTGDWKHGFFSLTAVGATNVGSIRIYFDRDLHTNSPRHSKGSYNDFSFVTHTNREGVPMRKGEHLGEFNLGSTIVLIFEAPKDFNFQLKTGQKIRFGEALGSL
Description: as §2
To determine PSD activity, purified enzyme (0.2–0.4 μM) or crude cell lysate (0.25–0.5 μg of protein) was incubated with PS (50 μM) for 45 min at 30 °C in the dark with shaking under the conditions described above for PE determination. PSD activity was measured by determining the PE produced as described above, except that the signal obtained in the absence of substrate PS (representing endogenous PE) was subtracted from the signal obtained in the presence of PS.
Human recombinant SMAC (10339‐H08E) was produced by Sino Biologicals (Wayne, PA, USA). […]

Q: For “si‐hSMAC‐A: Human SMAC/Diablo‐specific siRNA, sense 5′AAGCGGUGUUUCUCAGAATTGtt3′, antisense 5′AACAAUUCUGAGAAACCCG Ctt3′ (sense AAGCGGUGUUUCUCAGAATTGTT; antisense AACAAUUCUGAGAAACCCGCTT; chemistry not given here)”, which “expression of Ki‐67, cell proliferation marker” value (Ki‐67) is on record?
A: highly reduced

Q: What about the SMAC/Diablo level decreased (SMAC/Diablo) of the same molecule?
A: 75%

Q: And the tumour volume reduced (A549 cell xenograft [1]; si‐hSMAC‐A 350 nM)?
A: 50%

Q: And the tumour volume reduced (A549 cell xenograft [1]; si‐hSMAC‐A 700 nM)?
A: 85%

Q: What about the “cell death, TUNEL staining” value (A549 cell xenograft [2]) of the same molecule?
A: No cell death was detected

Q: And the “levels of PE increased” value (phospholipid levels; DSB‐3 probe)?
A: 200%

Q: And the “levels of PC decreased” value (phospholipid levels)?
A: 65%

Q: What about the “levels of PLs decreased” value (phospholipid levels) of the same molecule?
A: 50%

Q: And the “PLA signal VDAC1‐IP3R” value [3]?
A: over fourfold

Q: Which cell death [4] does the source give for Distyrylbenzene‐bis‐aldehyde [DSB‐3] here?
A: no cell death

B1: SMAC: Human recombinant SMAC (10339‐H08E) produced by Sino Biologicals (protein)
chain: LCVPVVANFKKRCFSELIRPWHKTVTIGFGVTLCAVPIAQKSEPHSLSSEALMRRAVSLVTDSTSTFLSQTTYALIEAITEYTKAVYTLTSLYRQYTSLLGKMNSEEEDEVWQVIIGARAEMTSKHQEYLKLETTWMTAVGLSEMAAEAAYQTGADQASITARNHIQLVKLQVEEVHQLSRKAETKLAEAQIEELRQKTQEEGEERAESEQEAYLRED
modifications: fluorescently labelled with the NanoTemper Protein labelling kit BLUE (in the MST with PSD only)
notes: Human recombinant SMAC (10339‐H08E) produced by Sino Biologicals
Q: Which IC50 (purified PSD) does the source give for B1 here?
A: 0.4 µM
